“Also recorded” adds a separate entry of the source.
How the values were obtained:
[1] = tested on: p53 altered MMTV-Neu cells; experiment: Chemokine induction by doxorubicin in MMTV-Neu cells; assay type: cell-based, mouse
Text: Doxorubicin induces T cell recruiting chemokines in p53 altered MMTV-Neu cells. FIG. 49.

[2] = tested on: TP53 mutant mouse breast cancer cells lines; experiment: Cytokine expression after doxorubicin in mouse breast cancer cell lines; assay type: cell-based
melanoma cell lines [3] = experiment: Flow cytometry of melanoma cell lines under basal and IFNγ-stimulated conditions; assay type: cell-based, human
Method: (§1) FIGS. 3A-F show characterization of MHC-II(+) melanoma cell lines. Melanoma cell lines were treated with IFNy for 24 h before collection and live-cell staining and flow cytometry analysis for (A) MHC-I (HLA-A/B/C), (B) MHC-II (HLA-DR), and (C) PD-L1. Bars represent mean ±S.E.M. for at least three experiments (D) Representative flow plots from (C). (E) Western blot analysis of melanoma cell lines after 24 or 48 h of IFNy stimulation. (F) Phosphorylation of STAT1 (top row) and STATS (bottom row) in melanoma cell lines at 15 min after IFNy stimulation. Histograms were colored according to the arcsinh transformed ratio or MFI medians relative to the table minimum value.
FIGS. 4A-D show graphs illustrating mean expression levels of MHC-I, MHC-II, and PD-L1 at baseline and after IFNy stimulation. Melanoma cell lines were treated with 100 ng IFNy for 24 hr (shown as percentage positive in FIGS. 2A-C) prior to harvest and live-cell staining and flow cytometry analysis for (A) MHC-FHLA-A/B/C, (B) MHC-II/HLA-DR, and (C) PD-L1. Bars represent mean fluorescence intensity ±SEM for 3 experiments. (D) Histograms of HLA-DR surface expression over an extended (24-72 hr) IFNy treatment, as assessed by flow cytometry.
Cell surface expression mirrored mRNA expression patterns; MHC-I (HLA-A/B/C) was expressed ubiquitously among all cell lines under both basal and stimulated conditions, while MHC-II (HLA-DR) was present only on the intermediate/Ib (SKMEL5 and SKMEL28) and high/Ia cell lines (WM115 and A375; FIGS. 3A-C and 4A-D). […] The high (Ia) WM115 cell line was essentially 100% positive for HLA-DR at both basal and stimulated conditions.
Standard Flow Cytometry. Flow cytometry was performed using the following antibodies: HLA-DR/PE-Cy7 (Biolegend, clone L243. 1:20). CD274/PD-L1/APC (Biolegend, clone 29E.2A3, 1:200) and HLA-A/B/C-Alexa Fluor488 (1:100, Biolegend, clone W6/32) mouse MHC-II (I-A/I-E 1:20 Biolegend, clone M5/114.15.2). DAPI was used as a viability dye. Samples were analyzed on an Aria III laser system (BD Biosciences)
Cell and tumor culture. […]

melanoma cell lines [4] = experiment: Western blot of melanoma cell lines after IFNγ stimulation; assay type: cell-based, human
Method: as §1
Immunoblotting was performed as previously described^32 Briefly, cells were washed in cold phosphate-buffered saline, collected and lysed in 1×RIPA buffer (50 mM Tris (pH 7.4), 1% NP-40, 150 mM NaCl, 1 mM EDTA, 0.1% SDS, 0.25% sodium deoxycholate, 5 mM NaF, 5 mM Na3VO4, 10% glycerol, […] phenylmethyl-sulphonylfluoride and protease inhibitors) for 30 min on ice. Lysates were sonicated for 2-3 s to shear DNA and cleared by centrifugation at 13,200 r.p.m. for 15 min. Protein concentrations of the lysates were determined by BCA assay (Bio-Rad, Hercules, Calif.). Samples were separated by SDS-PAGE and transferred to nitrocellulose membrane. […]

melanoma cell lines [5] = experiment: Phospho-flow cytometry of melanoma cell lines after IFNγ stimulation; assay type: cell-based, human; settings: 15 min IFNγ; MHC-II(−) cell lines
Method: as §1
Phospho-flow cytometry. Melanoma cell lines were treated with Accutase™ (EMD Millipore, # SCR005) for 10 minutes at 37° C. to dissociate them from the plate. Dissociated cell lines were rested at 37° C. in a CO2 incubator for 30 minutes prior to stimulation. After resting, cells were stimulated by adding IFNy (Cell Signaling) at a final concentration of 100 ng/mL. During signaling, cells were kept in a 37° C. CO2 incubator. After 15 minutes of signaling, cells were fixed for 10 minutes at room temperature with a final concentration of 1.6% paraformaldehyde (Electron Microscopy Services). […] Samples were analyzed on a LSRII system (BD Biosciences).

[6] = tested on: melanoma PDX tissue slices; experiment: Ex vivo organotypic culture of PDX tumor slices with or without IFNγ; assay type: cell-based, human; settings: PT1 and PT2 PDX tissue slices, 24-48 h
Text: FIGS. 6A-D show Ex vivo culture of tumors derived from anti-PD-1-responding and non-responding patients identifies heterogeneity in interferon response. (A) Patient tumor blocks stained for HLA-DR (brown) and SOX10 (pink) at low (scale bar, 500 um) and high magnification (scale bar, […]); PT1: anti-PD-1 non-responder and PT2: anti-PD-1 responder. (B) Experimental schema. (C) Schema and images of PDX tissue sections (ex vivo organotypic culture). (D) Western blot analysis of tissue sections cultured in the presence or absence of IFNy for 24-48 h.
To test this hypothesis, patient-derived xenograft (PDX) models were utilized from the tumor resections of two melanoma patients who subsequently received anti-PD1 therapy; patient 1 (PT1; non-responder, 0% HLA-DR-positive, class II/III) and patient 2 (PT2; partial responder, heterogeneous 15% HLA-DR-positive, class Ib) (FIG. 6A). […] The resected tumors from PT1 and PT2 were serially transplanted to athymic nu/nu mice, which are highly deficient in functional T cells, ruling out a possible source of IFNγ (FIG. 6B). […] Thus, HLA-DR may be a marker of IFNγ activity in the microenvironment of some (but not all) tumors.
Cell and tumor culture. SKMEL-28 and WM115 cell lines were obtained from Dr. Kimberly Dahlman (Vanderbilt University), CHL-1 and HMCB melanoma cell lines were obtained from the laboratory of William Pao (Vanderbilt University). […]

| Compound | T cell recruiting chemokines [1] | cytokine expression [2] | HLA-DR expression (melanoma cell lines [3]; CHL-1 or HMCB, 72 hrs of IFNγ treatment) | HLA-DR expression (melanoma cell lines [3]; SKMEL28 (intermediate/Ib)) | PD-L1 expression (melanoma cell lines [3]; all cell lines tested) | CIITA expression (melanoma cell lines [4]; 24 or 48 h IFNγ) | STAT1 activation (melanoma cell lines [4]; all cell lines) | STATS activation (melanoma cell lines [5]) | HLA-DR upregulation [6] |
| --- | --- | --- | --- | --- | --- | --- | --- | --- | --- |
| COc1cccc2c1C(=O)c1c(O)c3c(c(O)c1C2=O)C[C@@](O)(C(=O)CO)C[C@@H]3O[C@H]1C[C@H](N)[C@H](O)[C@H](C)O1 [Doxorubicin] | induces | induce cytokine expression |  |  |  |  |  |  |  |
| IFNγ: recombinant human IFNγ (R&D Systems), stimulation at 100 ng/mL |  |  | No significant increase | potently induced | potently induced; also recorded: significantly upregulated | only induced in HLA-DR+ Ia/Ib cells | robustly activated | preferentially activated | only the PT2 PDX model (anti-PD-1 responder) upregulated HLA-DR |
